# Legend:
# Assay type in all cases: biochemical
# EGFR (D770_N771insNPG) = EGFR (D770_N771insNPG) (Homo sapiens (Human), UniProt P00533, INS770NPG); assay: HotSpot radiometric kinase assay, EGFR (D770_N771insNPG); details: 10 μM ATP, read-out: EGFR (Δ770_N771insNPG) IC50
# Summary of the method: (§1)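 IC50 values derive from curve fits of 33P incorporation measured by P81 filter binding. ATP was 10 μM final; incubation lasted 120 min at room temperature after ~20 min compound preincubation.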
# CLK2 = CLK2 (Homo sapiens (Human), UniProt P49760); assay: Inhibition of CLK2 kinase activity evaluated at Nanosyn (ADP-Glo); details: ADP-Glo luminescence
# Summary of the method: (§2)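 ADP-Glo luminescence (40 min depletion, 10 min detection) quantifies ADP from ATP-initiated phosphorylation of substrate by each CLK isoform in HEPES pH 7.5 buffer, 1% DMSO, assay-specific incubation. %-inhibition calculated against uninhibited and enzyme-free controls.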
# [1] = target: EGFR L858R/T790M/C797S mutant (Homo sapiens (Human), UniProt P00533, C797S/L858R/T790M); assay: HotSpot radiometric kinase assay, EGFR L858R/T790M/C797S mutant; details: 10 μM ATP
# Chain of EGFR L858R/T790M/C797S mutant (P00533 25-1210 T790M/C797S/L858R): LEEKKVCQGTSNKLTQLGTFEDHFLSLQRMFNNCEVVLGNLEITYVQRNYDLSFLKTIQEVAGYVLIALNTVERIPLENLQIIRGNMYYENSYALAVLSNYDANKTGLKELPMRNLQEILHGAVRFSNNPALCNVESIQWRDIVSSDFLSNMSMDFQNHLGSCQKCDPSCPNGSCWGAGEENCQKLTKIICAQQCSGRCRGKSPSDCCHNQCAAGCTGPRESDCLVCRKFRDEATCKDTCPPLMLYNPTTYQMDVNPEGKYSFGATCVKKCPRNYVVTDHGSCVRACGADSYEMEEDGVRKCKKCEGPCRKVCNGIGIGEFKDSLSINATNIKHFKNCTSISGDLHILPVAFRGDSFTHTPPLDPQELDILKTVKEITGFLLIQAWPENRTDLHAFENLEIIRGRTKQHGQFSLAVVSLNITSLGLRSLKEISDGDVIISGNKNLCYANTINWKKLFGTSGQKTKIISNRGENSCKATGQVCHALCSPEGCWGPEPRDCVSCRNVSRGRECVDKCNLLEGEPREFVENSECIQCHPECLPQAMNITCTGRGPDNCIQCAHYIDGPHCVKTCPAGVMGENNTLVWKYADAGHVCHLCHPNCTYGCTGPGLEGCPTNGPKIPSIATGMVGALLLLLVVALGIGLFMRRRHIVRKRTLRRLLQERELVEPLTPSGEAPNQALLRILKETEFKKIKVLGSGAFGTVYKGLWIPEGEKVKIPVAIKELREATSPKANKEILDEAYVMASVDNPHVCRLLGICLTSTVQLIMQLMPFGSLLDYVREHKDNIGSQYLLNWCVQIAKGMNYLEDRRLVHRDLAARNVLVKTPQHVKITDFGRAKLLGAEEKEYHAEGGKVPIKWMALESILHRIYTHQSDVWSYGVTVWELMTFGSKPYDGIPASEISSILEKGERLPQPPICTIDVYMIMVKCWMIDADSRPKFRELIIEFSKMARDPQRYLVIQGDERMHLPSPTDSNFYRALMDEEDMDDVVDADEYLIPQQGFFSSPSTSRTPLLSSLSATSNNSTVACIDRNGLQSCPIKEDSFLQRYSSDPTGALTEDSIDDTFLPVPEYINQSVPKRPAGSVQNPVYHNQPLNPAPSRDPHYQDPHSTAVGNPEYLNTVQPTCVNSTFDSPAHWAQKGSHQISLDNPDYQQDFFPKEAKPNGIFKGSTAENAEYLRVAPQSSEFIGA
# Summary of the method: as §1
# EGFR WT = EGFR WT (Homo sapiens (Human), UniProt P00533); assay: HotSpot radiometric kinase assay (Reaction Biology), EGFR WT; details: 10 μM ATP
# Summary of the method: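 Compounds were preincubated ~20 min with kinase/substrate in pH 7.5 Hepes buffer (MgCl2, EGTA, Brij35, BSA, Na3VO4, DTT, 1% DMSO), then ATP plus 33P-ATP was added to 10 μM final. After 120 min at room temperature, reactions were spotted on P81 filters and washed; IC50 values came from curve fits.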
# EGFR L858R/T790M mutant = EGFR L858R/T790M mutant (Homo sapiens (Human), UniProt P00533, L858R/T790M); assay: HotSpot radiometric kinase assay, EGFR L858R/T790M mutant; details: 10 μM ATP
# Chain of EGFR L858R/T790M mutant (P00533 25-1210 T790M/L858R): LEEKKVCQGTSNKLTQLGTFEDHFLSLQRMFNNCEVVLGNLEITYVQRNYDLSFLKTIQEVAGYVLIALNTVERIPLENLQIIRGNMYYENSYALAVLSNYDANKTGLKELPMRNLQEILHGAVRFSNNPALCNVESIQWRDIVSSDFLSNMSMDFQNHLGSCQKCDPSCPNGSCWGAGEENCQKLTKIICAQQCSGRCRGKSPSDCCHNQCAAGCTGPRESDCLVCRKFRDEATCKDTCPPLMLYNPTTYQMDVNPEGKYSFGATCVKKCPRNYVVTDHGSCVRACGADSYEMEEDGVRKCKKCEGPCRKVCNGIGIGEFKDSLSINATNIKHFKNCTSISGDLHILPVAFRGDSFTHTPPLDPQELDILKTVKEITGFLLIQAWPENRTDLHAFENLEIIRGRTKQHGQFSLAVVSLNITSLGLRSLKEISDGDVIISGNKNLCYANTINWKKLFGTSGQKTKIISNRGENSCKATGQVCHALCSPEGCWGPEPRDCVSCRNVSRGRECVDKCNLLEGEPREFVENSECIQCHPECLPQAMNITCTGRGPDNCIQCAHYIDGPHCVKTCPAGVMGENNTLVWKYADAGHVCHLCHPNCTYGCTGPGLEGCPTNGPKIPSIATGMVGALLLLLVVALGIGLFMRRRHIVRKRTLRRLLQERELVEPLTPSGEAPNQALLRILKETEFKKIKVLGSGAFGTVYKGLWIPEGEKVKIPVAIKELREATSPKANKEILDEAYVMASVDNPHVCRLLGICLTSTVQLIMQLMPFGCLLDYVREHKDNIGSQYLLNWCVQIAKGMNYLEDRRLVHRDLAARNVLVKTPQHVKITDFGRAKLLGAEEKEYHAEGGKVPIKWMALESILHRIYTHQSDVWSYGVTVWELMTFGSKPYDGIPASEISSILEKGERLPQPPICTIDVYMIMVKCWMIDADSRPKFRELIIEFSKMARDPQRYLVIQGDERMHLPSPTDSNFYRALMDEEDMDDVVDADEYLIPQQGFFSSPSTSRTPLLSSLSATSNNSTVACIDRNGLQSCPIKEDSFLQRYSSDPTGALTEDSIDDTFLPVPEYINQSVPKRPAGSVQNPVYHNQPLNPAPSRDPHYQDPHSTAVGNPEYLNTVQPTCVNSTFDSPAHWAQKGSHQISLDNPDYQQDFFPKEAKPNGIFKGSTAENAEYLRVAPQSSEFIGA
# Summary of the method: as §1
# CLK4 = CLK4 (Homo sapiens (Human), UniProt Q9HAZ1); assay: Inhibition of CLK4 kinase activity evaluated at Nanosyn (ADP-Glo); details: ADP-Glo luminescence
# Chain of CLK4 (Q9HAZ1 whole entry): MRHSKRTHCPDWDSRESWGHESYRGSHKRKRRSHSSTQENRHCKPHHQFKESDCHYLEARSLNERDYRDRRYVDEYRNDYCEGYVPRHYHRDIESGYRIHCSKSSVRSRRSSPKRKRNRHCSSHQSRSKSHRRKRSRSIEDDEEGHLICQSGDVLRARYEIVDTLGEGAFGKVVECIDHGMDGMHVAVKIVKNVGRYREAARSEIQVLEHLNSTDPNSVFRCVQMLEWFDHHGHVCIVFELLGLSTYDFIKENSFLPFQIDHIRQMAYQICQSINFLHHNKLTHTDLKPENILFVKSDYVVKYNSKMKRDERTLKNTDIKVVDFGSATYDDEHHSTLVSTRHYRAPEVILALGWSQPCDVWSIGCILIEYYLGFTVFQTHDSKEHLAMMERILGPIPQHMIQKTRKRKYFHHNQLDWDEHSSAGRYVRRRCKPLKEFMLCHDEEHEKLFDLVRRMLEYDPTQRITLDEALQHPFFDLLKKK
# Summary of the method: as §2
# [2] = target: EGFR Δ746-750/C797S mutant (Homo sapiens (Human), UniProt P00533, C797S/DEL746-750); assay: HotSpot radiometric kinase assay, EGFR Δ746-750/C797S mutant; details: 10 μM ATP
# Summary of the method: as §1
# CLK1 = CLK1 (Homo sapiens (Human), UniProt P49759); assay: Inhibition of CLK1 kinase activity evaluated at Nanosyn (ADP-Glo); details: ADP-Glo luminescence
# Chain of CLK1 (P49759 whole entry): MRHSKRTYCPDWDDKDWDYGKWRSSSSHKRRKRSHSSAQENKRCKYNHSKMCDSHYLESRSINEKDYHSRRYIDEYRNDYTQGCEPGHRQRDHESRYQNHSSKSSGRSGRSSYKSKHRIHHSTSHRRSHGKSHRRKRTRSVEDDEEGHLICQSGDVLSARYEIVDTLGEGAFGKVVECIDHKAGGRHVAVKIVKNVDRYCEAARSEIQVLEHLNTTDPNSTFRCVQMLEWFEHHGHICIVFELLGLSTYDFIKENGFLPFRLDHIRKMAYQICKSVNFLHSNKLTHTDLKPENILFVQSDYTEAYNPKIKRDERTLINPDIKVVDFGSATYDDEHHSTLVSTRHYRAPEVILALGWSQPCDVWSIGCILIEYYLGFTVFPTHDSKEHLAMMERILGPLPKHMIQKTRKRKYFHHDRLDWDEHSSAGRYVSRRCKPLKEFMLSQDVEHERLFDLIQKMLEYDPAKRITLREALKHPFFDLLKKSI
# Summary of the method: as §2
# EGFR L858R mutant = EGFR L858R mutant (Homo sapiens (Human), UniProt P00533, L858R); assay: HotSpot radiometric kinase assay, EGFR L858R mutant; details: 10 μM ATP
# Chain of EGFR L858R mutant (P00533 25-1210 L858R): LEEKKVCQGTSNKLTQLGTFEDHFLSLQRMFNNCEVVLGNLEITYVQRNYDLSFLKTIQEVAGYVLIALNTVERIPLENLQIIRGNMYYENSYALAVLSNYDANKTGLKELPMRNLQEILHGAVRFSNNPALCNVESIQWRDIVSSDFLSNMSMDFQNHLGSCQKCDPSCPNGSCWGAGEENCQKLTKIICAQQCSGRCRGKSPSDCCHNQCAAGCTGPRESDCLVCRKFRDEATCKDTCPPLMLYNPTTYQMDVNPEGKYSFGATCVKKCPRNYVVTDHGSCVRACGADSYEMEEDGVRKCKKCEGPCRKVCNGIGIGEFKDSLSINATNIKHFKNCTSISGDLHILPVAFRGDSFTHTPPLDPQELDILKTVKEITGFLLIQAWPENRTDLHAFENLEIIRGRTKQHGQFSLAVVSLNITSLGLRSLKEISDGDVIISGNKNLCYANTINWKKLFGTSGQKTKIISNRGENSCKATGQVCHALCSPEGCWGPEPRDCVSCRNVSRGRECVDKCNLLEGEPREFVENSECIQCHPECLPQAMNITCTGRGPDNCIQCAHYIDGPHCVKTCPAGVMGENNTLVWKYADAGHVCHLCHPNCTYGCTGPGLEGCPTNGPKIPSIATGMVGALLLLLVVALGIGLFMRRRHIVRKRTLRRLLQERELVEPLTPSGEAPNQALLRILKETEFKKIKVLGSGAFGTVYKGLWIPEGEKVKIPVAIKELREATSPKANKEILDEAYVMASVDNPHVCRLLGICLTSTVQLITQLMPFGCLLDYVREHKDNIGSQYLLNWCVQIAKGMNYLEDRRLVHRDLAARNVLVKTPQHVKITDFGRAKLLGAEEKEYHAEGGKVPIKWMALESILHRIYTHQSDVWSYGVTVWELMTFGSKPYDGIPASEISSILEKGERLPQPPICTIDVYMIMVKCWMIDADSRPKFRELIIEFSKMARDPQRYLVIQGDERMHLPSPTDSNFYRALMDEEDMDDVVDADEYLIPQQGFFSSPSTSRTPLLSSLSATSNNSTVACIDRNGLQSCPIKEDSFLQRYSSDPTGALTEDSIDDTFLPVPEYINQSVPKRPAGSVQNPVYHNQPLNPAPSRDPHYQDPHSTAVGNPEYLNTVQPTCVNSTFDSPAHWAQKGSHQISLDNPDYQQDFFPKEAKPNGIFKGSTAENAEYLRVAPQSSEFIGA
# Summary of the method: as §1
# EGFR Δ746-750 mutant = EGFR Δ746-750 mutant (Homo sapiens (Human), UniProt P00533, DEL746-750); assay: HotSpot radiometric kinase assay, EGFR Δ746-750 mutant; details: 10 μM ATP
# Chain of EGFR Δ746-750 mutant (P00533 other isoform, or with tags, fused parts or gaps del 1-668/del 746-750 limits assumed): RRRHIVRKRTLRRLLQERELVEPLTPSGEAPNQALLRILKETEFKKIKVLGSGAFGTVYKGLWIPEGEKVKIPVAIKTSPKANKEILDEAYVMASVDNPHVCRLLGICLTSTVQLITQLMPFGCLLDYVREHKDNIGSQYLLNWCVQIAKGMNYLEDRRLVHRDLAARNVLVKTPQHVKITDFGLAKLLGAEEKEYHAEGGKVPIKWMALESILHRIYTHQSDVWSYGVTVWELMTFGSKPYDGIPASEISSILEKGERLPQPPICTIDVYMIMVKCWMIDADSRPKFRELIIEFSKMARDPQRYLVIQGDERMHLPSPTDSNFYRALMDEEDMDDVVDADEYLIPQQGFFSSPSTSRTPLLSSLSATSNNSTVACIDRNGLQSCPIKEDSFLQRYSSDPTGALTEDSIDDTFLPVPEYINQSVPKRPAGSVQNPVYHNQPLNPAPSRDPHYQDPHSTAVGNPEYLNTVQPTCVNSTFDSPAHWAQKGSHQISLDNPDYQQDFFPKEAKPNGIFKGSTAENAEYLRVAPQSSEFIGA
# Summary of the method: as §1
# CLK3 = CLK3 (Homo sapiens (Human), UniProt P49761); assay: Inhibition of CLK3 kinase activity evaluated at Nanosyn (ADP-Glo); details: ADP-Glo luminescence
# Summary of the method: as §2
SMILES,IC50 (EGFR (D770_N771insNPG)),IC50 (CLK2),IC50 [1],IC50 (EGFR WT),IC50 (EGFR L858R/T790M mutant),IC50 (CLK4),IC50 [2],IC50 (CLK1),IC50 (EGFR L858R mutant),IC50 (EGFR Δ746-750 mutant),IC50 (CLK3)
"CCOc1nn(C)c2c1/C=C/c1n[nH]c3ccc(cc13)-c1cnn(C)c1O[C@@H](C)CN(C(C)C)C2 [Example 156, (10S,17E)-16-ethoxy-8,10,14-trimethyl-12-(propan-2-yl)-2,10,11,12,13,14-hexahydro-8H-3,5-ethenotripyrazolo[3,4-f:3′,4′-j:4″,3″-n][1,4]oxazacyclopentadecine]",64.9 nM,0.13 nM,1.04 nM,19.3 nM,0.88 nM,0.4 nM,3.62 nM,0.42 nM,4.34 nM,1.77 nM,63.6 nM
"CC(C)Oc1nn(CCO)c2c1/C=C/c1n[nH]c3ccc(cc13)-c1cnn(C)c1O[C@@H](C)[C@H]1CCCN1C2 [Example 252, 2-[(8aR,9S,19E)-9,11-dimethyl-1-[(propan-2-yl)oxy]-7,8,8a,9,11,17-hexahydro-6H-14,16-ethenotripyrazolo[3,4-f:3′,4′-j:4″,3″-n]pyrrolo[2,1-c][1,4]oxazacyclopentadecin-3(4H)-yl]ethan-1-ol]",15.7 nM,0.42 nM,5.35 nM,4.74 nM,1.91 nM,1.59 nM,2.29 nM,0.83 nM,2.38 nM,1.31 nM,168 nM
"CCOc1nccc2c1/C=C/c1n[nH]c3ccc(cc13)-c1cnn(C)c1O[C@@H](C)CN(C)C2 [Example 240, (10S,18E)-17-ethoxy-8,10,12-trimethyl-2,8,10,11,12,13-hexahydro-3,5-ethenodipyrazolo[3,4-j:4′,3′-n]pyrido[4,3-f][1,4]oxazacyclopentadecine]",> 1000 nM,12.5 nM,10.5 nM,> 1000 nM,5.92 nM,1.52 nM,653 nM,1.12 nM,775 nM,826 nM,1000 nM
"Cn1ncc2c1OCCN1CC[C@@H](Oc3ccc(F)cc3/C=C/c3n[nH]c4ccc-2cc34)C1=O [Example 132, (10R,16E)-14-fluoro-3-methyl-3,5,6,9,10,19-hexahydro-8H-20,22-etheno-7,10-methanodipyrazolo[3,4-i:4′,3′-m][1,8,5]benzodioxazacyclooctadecin-25-one]",284 nM,0.02 nM,35.3 nM,721 nM,20.1 nM,0.3 nM,67 nM,0.19 nM,157 nM,39.4 nM,0.28 nM
"Cc1nn(C[C@H](C)O)c2c1/C=C/c1n[nH]c3ccc(cc13)-c1cnn(C)c1O[C@@H](C)CN(C)C2 [Example 123, (2S)-1-[(10S,17E)-8,10,12,16-tetramethyl-2,8,10,11,12,13-hexahydro-14H-3,5-ethenotripyrazolo[3,4f:3′,4′-j:4″,3″-n][1,4]oxazacyclopentadecin-14-yl]propan-2-ol]",10.1 nM,0.1 nM,0.75 nM,11.4 nM,0.33 nM,0.45 nM,0.8 nM,0.17 nM,1.5 nM,1.3 nM,171 nM
"CCOc1nn(CCO)c2c1/C=C/c1n[nH]c3ccc(cc13)-c1cnn(C)c1OC[C@H](CC)N(C)C2 [Example 259, 2-[(11S,17E)-16-ethoxy-11-ethyl-8,12-dimethyl-2,8,10,11,12,13-hexahydro-14H-3,5-ethenotripyrazolo[3,4-f:3′,4′-j:4″,3″-n][1,4]oxazacyclopentadecin-14-yl]ethan-1-ol]",500 nM,4.29 nM,21.8 nM,329 nM,9.39 nM,1.3 nM,22.9 nM,0.9 nM,66.5 nM,40.1 nM,1000 nM

# — patent US20250353864A1, “INDAZOLE CONTAINING MACROCYCLES AND THEIR USE” (BLOSSOMHILL THERAPEUTICS, INC., priority 2022, published 2025)
